From the supplement of paper PMC10307832

How the values were obtained:
Test in all cases: relative viability (nuclei count vs DMSO), 5 days (fraction); higher = more cells survive
[1] = compound: CN1CCN(CC1)C2=CC(=C(C=C2)NC3=NC=C4C(=N3)N(C5=CC=CC=C5C(=O)N4C)C)OC [XMD8-85] + CS(=O)(=O)CCNCc1ccc(-c2ccc3ncnc(Nc4ccc(OCc5cccc(F)c5)c(Cl)c4)c3c2)o1 [Lapatinib] (partner 2 µM)
In short: (§1)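 Relative viability was taken as the ratio of nuclei in treated wells to nuclei in vehicle wells. Lung cancer cell lines in 1536-well plates received compounds by pin tool one day after seeding, either one drug alone or a fixed anchor-drug dose plus five library-drug doses (not always all listed) in √10 steps. Nuclei were counted on 4× images after 5 days of treatment, and values are medians of duplicate plates.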

[2] = compound: CN1CCN(CC1)C2=CC(=C(C=C2)NC3=NC=C4C(=N3)N(C5=CC=CC=C5C(=O)N4C)C)OC [XMD8-85] + CS(=O)(=O)N1CCN(Cc2cc3nc(-c4cccc5[nH]ncc45)nc(N4CCOCC4)c3s2)CC1 [Pictilisib] (partner 1 µM)
In short: as §1

[3] = compound: O=C(O)C(Cc1ccccc1[N+](=O)[O-])=NNc1nc(-c2ccc(Cl)c(Cl)c2)cs1 (mixture of isomers) [4EGI-1] + CS(=O)(=O)CCNCc1ccc(-c2ccc3ncnc(Nc4ccc(OCc5cccc(F)c5)c(Cl)c4)c3c2)o1 [Lapatinib] (partner 2 µM)
In short: as §1

[4] = compound: O=C(O)C(Cc1ccccc1[N+](=O)[O-])=NNc1nc(-c2ccc(Cl)c(Cl)c2)cs1 (mixture of isomers) [4EGI-1] + Cc1nc(NC(=O)N2CCC[C@H]2C(N)=O)sc1-c1ccnc(C(C)(C)C(F)(F)F)c1 [Alpelisib] (partner 2 µM)
In short: as §1

Cell Line NCI-H1437 has a relative viability ([1]; first compound 0.08 µM) of 0.785, a relative viability ([1]; first compound 0.253 µM) of 0.888 and a relative viability ([1]; first compound 0.8 µM) of 0.804. The relative viability ([1]; first compound 2.53 µM) was 0.792, the relative viability ([1]; first compound 8 µM) was 0.407 and the relative viability ([2]; first compound 0.08 µM) was 0.4. It also gave a relative viability ([2]; first compound 0.253 µM) of 0.376, a relative viability ([2]; first compound 0.8 µM) of 0.433 and a relative viability ([2]; first compound 2.53 µM) of 0.333. For the same cell line, the relative viability ([2]; first compound 8 µM) was 0.318, the relative viability ([3]; first compound 0.5 µM) was 0.914 and the relative viability ([3]; first compound 1.581 µM) was 0.861. For the same cell line, the relative viability ([3]; first compound 5 µM) was 0.671, the relative viability ([3]; first compound 15.81 µM) was 0.184 and the relative viability ([3]; first compound 50 µM) was 0.127. It also gave a relative viability ([4]; first compound 0.5 µM) of 1.13, a relative viability ([4]; first compound 1.581 µM) of 0.865 and a relative viability ([4]; first compound 5 µM) of 0.84. The relative viability ([4]; first compound 15.81 µM) was 0.845 and the relative viability ([4]; first compound 50 µM) was 0.153.

NCI-H596 gave a relative viability ([1]; first compound 0.08 µM) of 1.01, a relative viability ([1]; first compound 0.253 µM) of 1.03 and a relative viability ([1]; first compound 0.8 µM) of 1.24. The relative viability ([1]; first compound 2.53 µM) was 1.03, the relative viability ([1]; first compound 8 µM) was 0.874 and the relative viability ([2]; first compound 0.08 µM) was 0.392. It also gave a relative viability ([2]; first compound 0.253 µM) of 0.396, a relative viability ([2]; first compound 0.8 µM) of 0.359 and a relative viability ([2]; first compound 2.53 µM) of 0.397. It also gave a relative viability ([2]; first compound 8 µM) of 0.354, a relative viability ([3]; first compound 0.5 µM) of 1.07 and a relative viability ([3]; first compound 1.581 µM) of 1.03. The relative viability ([3]; first compound 5 µM) was 1.23, the relative viability ([3]; first compound 15.81 µM) was 0.958 and the relative viability ([3]; first compound 50 µM) was 0.609. It also gave a relative viability ([4]; first compound 0.5 µM) of 0.576, a relative viability ([4]; first compound 1.581 µM) of 0.524 and a relative viability ([4]; first compound 5 µM) of 0.508. It also gave a relative viability ([4]; first compound 15.81 µM) of 0.574 and a relative viability ([4]; first compound 50 µM) of 0.461.

In the case of NCI-H661, the relative viability ([1]; first compound 0.08 µM) is reported as 0.486, the relative viability ([1]; first compound 0.253 µM) is reported as 0.485 and the relative viability ([1]; first compound 0.8 µM) is reported as 0.404. For the same cell line, the relative viability ([1]; first compound 8 µM) was 0.473, the relative viability ([2]; first compound 0.08 µM) was 0.406 and the relative viability ([2]; first compound 0.253 µM) was 0.419. It also gave a relative viability ([2]; first compound 0.8 µM) of 0.412, a relative viability ([2]; first compound 2.53 µM) of 0.366 and a relative viability ([2]; first compound 8 µM) of 0.357. For the same cell line, the relative viability ([3]; first compound 0.5 µM) was 0.666, the relative viability ([3]; first compound 1.581 µM) was 0.46 and the relative viability ([3]; first compound 5 µM) was 0.566. For the same cell line, the relative viability ([3]; first compound 15.81 µM) was 0.43, the relative viability ([3]; first compound 50 µM) was 0.342 and the relative viability ([4]; first compound 0.5 µM) was 0.82. It also gave a relative viability ([4]; first compound 1.581 µM) of 0.446, a relative viability ([4]; first compound 5 µM) of 1.26 and a relative viability ([4]; first compound 15.81 µM) of 0.535. For the same cell line, the relative viability ([4]; first compound 50 µM) was 0.229.

With PC-3 [JPC-3] the relative viability ([1]; first compound 0.08 µM) was 0.405, the relative viability ([1]; first compound 0.253 µM) was 0.466 and the relative viability ([1]; first compound 0.8 µM) was 0.477. The relative viability ([1]; first compound 2.53 µM) was 0.492, the relative viability ([1]; first compound 8 µM) was 0.422 and the relative viability ([2]; first compound 0.08 µM) was 0.717. The relative viability ([2]; first compound 0.253 µM) was 0.666, the relative viability ([2]; first compound 0.8 µM) was 0.766 and the relative viability ([2]; first compound 2.53 µM) was 0.879. The relative viability ([2]; first compound 8 µM) was 0.672, the relative viability ([3]; first compound 0.5 µM) was 0.518 and the relative viability ([3]; first compound 1.581 µM) was 0.416. It also gave a relative viability ([3]; first compound 5 µM) of 0.443, a relative viability ([3]; first compound 50 µM) of 0.39 and a relative viability ([4]; first compound 0.5 µM) of 1.09. For the same cell line, the relative viability ([4]; first compound 1.581 µM) was 0.97, the relative viability ([4]; first compound 5 µM) was 0.979 and the relative viability ([4]; first compound 50 µM) was 0.884.

RERF-LC-KJ showed a relative viability ([1]; first compound 0.08 µM) of 0.871, a relative viability ([1]; first compound 0.253 µM) of 0.795 and a relative viability ([1]; first compound 0.8 µM) of 0.905. The relative viability ([1]; first compound 2.53 µM) was 0.989, the relative viability ([1]; first compound 8 µM) was 0.769 and the relative viability ([2]; first compound 0.08 µM) was 0.504. For the same cell line, the relative viability ([2]; first compound 0.253 µM) was 0.444, the relative viability ([2]; first compound 0.8 µM) was 0.524 and the relative viability ([2]; first compound 2.53 µM) was 0.603. It also gave a relative viability ([2]; first compound 8 µM) of 0.412, a relative viability ([3]; first compound 0.5 µM) of 0.93 and a relative viability ([3]; first compound 1.581 µM) of 0.677. For the same cell line, the relative viability ([3]; first compound 5 µM) was 0.808, the relative viability ([3]; first compound 15.81 µM) was 0.64 and the relative viability ([3]; first compound 50 µM) was 0.644. For the same cell line, the relative viability ([4]; first compound 0.5 µM) was 0.924, the relative viability ([4]; first compound 5 µM) was 0.728 and the relative viability ([4]; first compound 15.81 µM) was 0.677. The relative viability ([4]; first compound 50 µM) was 0.659.

NCI-H2170 showed a relative viability ([1]; first compound 0.08 µM) of 0.277, a relative viability ([1]; first compound 0.253 µM) of 0.302 and a relative viability ([1]; first compound 0.8 µM) of 0.253. The relative viability ([1]; first compound 2.53 µM) was 0.256, the relative viability ([1]; first compound 8 µM) was 0.249 and the relative viability ([2]; first compound 0.08 µM) was 0.26. It also gave a relative viability ([2]; first compound 0.253 µM) of 0.341, a relative viability ([2]; first compound 0.8 µM) of 0.335 and a relative viability ([2]; first compound 2.53 µM) of 0.305. It also gave a relative viability ([2]; first compound 8 µM) of 0.289, a relative viability ([3]; first compound 0.5 µM) of 0.32 and a relative viability ([3]; first compound 1.581 µM) of 0.266. The relative viability ([3]; first compound 5 µM) was 0.289, the relative viability ([3]; first compound 15.81 µM) was 0.264 and the relative viability ([3]; first compound 50 µM) was 0.235. The relative viability ([4]; first compound 0.5 µM) was 0.865, the relative viability ([4]; first compound 1.581 µM) was 0.803 and the relative viability ([4]; first compound 5 µM) was 0.849. For the same cell line, the relative viability ([4]; first compound 15.81 µM) was 0.768 and the relative viability ([4]; first compound 50 µM) was 0.344.

In the case of NCI-H1993, the relative viability ([1]; first compound 0.08 µM) is reported as 0.662, the relative viability ([1]; first compound 0.253 µM) is reported as 0.755 and the relative viability ([1]; first compound 0.8 µM) is reported as 0.93. For the same cell line, the relative viability ([1]; first compound 2.53 µM) was 0.819, the relative viability ([1]; first compound 8 µM) was 0.774 and the relative viability ([2]; first compound 0.08 µM) was 0.859. The relative viability ([2]; first compound 0.253 µM) was 0.795, the relative viability ([2]; first compound 0.8 µM) was 0.822 and the relative viability ([2]; first compound 2.53 µM) was 0.701. It also gave a relative viability ([2]; first compound 8 µM) of 0.814, a relative viability ([3]; first compound 0.5 µM) of 0.945 and a relative viability ([3]; first compound 1.581 µM) of 0.718. The relative viability ([3]; first compound 5 µM) was 0.838, the relative viability ([3]; first compound 15.81 µM) was 0.693 and the relative viability ([3]; first compound 50 µM) was 0.767. For the same cell line, the relative viability ([4]; first compound 0.5 µM) was 0.714, the relative viability ([4]; first compound 1.581 µM) was 0.666 and the relative viability ([4]; first compound 5 µM) was 0.72. It also gave a relative viability ([4]; first compound 15.81 µM) of 0.675 and a relative viability ([4]; first compound 50 µM) of 0.659.

With A-427 the relative viability ([1]; first compound 0.08 µM) was 1.05, the relative viability ([1]; first compound 0.253 µM) was 0.994 and the relative viability ([1]; first compound 0.8 µM) was 1.09. For the same cell line, the relative viability ([1]; first compound 2.53 µM) was 1.1, the relative viability ([1]; first compound 8 µM) was 0.937 and the relative viability ([2]; first compound 0.08 µM) was 0.683. For the same cell line, the relative viability ([2]; first compound 0.253 µM) was 0.808, the relative viability ([2]; first compound 0.8 µM) was 0.813 and the relative viability ([2]; first compound 2.53 µM) was 0.737. The relative viability ([2]; first compound 8 µM) was 0.527, the relative viability ([3]; first compound 0.5 µM) was 1.11 and the relative viability ([3]; first compound 1.581 µM) was 0.728. For the same cell line, the relative viability ([3]; first compound 5 µM) was 1.06, the relative viability ([3]; first compound 15.81 µM) was 0.997 and the relative viability ([3]; first compound 50 µM) was 0.6. For the same cell line, the relative viability ([4]; first compound 0.5 µM) was 1.04, the relative viability ([4]; first compound 1.581 µM) was 0.968 and the relative viability ([4]; first compound 5 µM) was 1.07. It also gave a relative viability ([4]; first compound 15.81 µM) of 0.991 and a relative viability ([4]; first compound 50 µM) of 0.759.
